Measurements reported in PMC7822874, “Chemoprotective antimalarials identified through quantitative high-throughput screening of Plasmodium blood and liver stage parasites” (Scientific Reports, 2021).

Tested on: Plasmodium falciparum Dd2 asexual blood stage parasites
Experiment: microbe, parasite or virus in culture
Set-up: species or system Plasmodium falciparum Dd2 in human erythrocytes; single determination (one 11-point concentration-response curve)
Conditions: Plasmodium falciparum, DD2, Erythrocyte, 72 h; read-out: AC50

Compound	AC50 [µM]
CCCCC(=O)Nc1nc(C)c(-c2csc(Nc3cc(OC)ccc3OC)n2)s1 [MLS000561609-01]	9.44
Cc1ccnc2nc(C(=O)Nc3cc(Cl)ccc3N3CCOCC3)nn12 [MLS000567033-01]	4.73
O=C(NC(S)=Nc1ccc(NC(=O)c2cccs2)cc1)c1ccco1 [MLS000567605-01]	9.44
CCCCn1cc(C(=O)c2cc(Br)ccc2O)cc(C#N)c1=O [MLS000568063-01]	13.3
CCCc1nc2ccc(NC(=O)c3cccs3)cc2c(=O)n1Cc1ccc(Cl)cc1 [MLS000569177-01]	8.41
COc1ccc2c(c1OC)C(=O)N1N=C(c3ccc(O)cc3)CC21 (stereo not drawn) [MLS000570475-01]	16.8
CCOc1nc(N=C(N)N)nc2c(C)cccc12 [MLS000570610-01]	10.6
O=C(NCC(c1ccco1)N1CCCC1)c1ccc(Cl)cc1 (stereo not drawn) [MLS000570686-01]	8.41
COc1ccccc1N1CCN(Cc2cc(C)c(C)cc2O)CC1 [MLS000571139-01]	0.376
CC(C)C(=O)NC(c1ccc([N+](=O)[O-])cc1)c1c(O)ccc2ccccc12 (stereo not drawn) [MLS000571279-01]	13.3
COc1ccc(N2CCN(Cc3cc4c(cc3O)CCC4)CC2)cc1 [MLS000572034-01]	16.8
COc1ccc(C2=C(Nc3ccccc3)c3ccccc3C2=O)cc1 [MLS000572234-01]	9.44
O=[N+]([O-])c1ccc(N2CCN(/C(S)=N/C3CCCCC3)CC2)cc1 [MLS000574247-01]	1.88
Cc1ccc(S(=O)(=O)Nc2ccc(-c3cn4ccc(C)cc4n3)cc2)cc1 [MLS000579534-01]	6.68
COc1ccc(C(C)NC(S)=NC2CCCC2)cc1OC (stereo not drawn) [MLS000581238-01]	6.68
COc1cc([N+](=O)[O-])ccc1NC(=O)Nc1nc2c(s1)CCCC2 [MLS000581295-01]	6.68
C=CC/N=C(\S)N1CCN(c2ccc([N+](=O)[O-])cc2)CC1 [MLS000581348-01]	4.22
COC(=O)c1nc2n(n1)C(c1ccc([N+](=O)[O-])cc1)C(C(=O)Nc1ccc(Cl)cc1)=C(C)N2 (stereo not drawn) [MLS000582454-01]	5.31
CCC1=Nc2cc(C(=O)NCc3ccco3)ccc2Sc2ccc(C)cc21 [MLS000583106-01]	8.41
COc1cc(CN2CC(=O)N(c3ccc(C)c(C)c3)C2=S)cc(OC)c1OC [MLS000583901-01]	15
OCC[n+]1ccc(/C=C/c2c[nH]c3ccccc23)cc1 [MLS000585200-01]	2.99

Compound	AC50 [µM]
Cc1cccc(Nc2cc(C)c3c(O)cccc3n2)c1C [MLS000586980-01]	4.73
CCCCn1c(NS(=O)(=O)c2ccccc2)c(C(=O)OCC)c2nc3ccccc3nc21 [MLS000589117-01]	10.6
Cc1cc(Nc2cccc(Cl)c2)nc(NCc2ccccc2)n1 [MLS000591844-01]	8.41
Cc1cc(Nc2nc3ccccc3nc2Cl)n(-c2ccccc2C)n1 [MLS000595322-01]	0.841
Cc1ccc(-n2ncc3c(NCc4ccco4)ncnc32)cc1C [MLS000622044-01]	15
CN1CCN(c2ccc(NC(=O)c3ccc(-c4cccc([N+](=O)[O-])c4)o3)cc2)CC1 [MLS000663772-01]	4.73
COc1ccc(C2CC(c3cccs3)=NN2C(=O)c2ccc(Br)o2)cc1 (stereo not drawn) [MLS000663972-01]	5.31
Cc1ccc(-c2cc(C(F)F)n3ncc(C(=O)N4CCCCC4c4cccnc4)c3n2)cc1 (stereo not drawn) [MLS000665275-01]	2.37
CCc1cc(=O)oc2cc(C)cc(OCC(=O)C(C)(C)C)c12 [MLS000666007-01]	11.9
O=C(CC1C(=O)N(Cc2ccccc2)C(=S)N1CCN1CCOCC1)Nc1ccc(F)cc1 (stereo not drawn) [MLS000672078-01]	5.31
CCc1ccc(CN2CCN(Cc3cc(Br)ccc3O)CC2)cc1 [MLS000673664-01]	2.11
OC(CNCc1cccc(Br)c1)c1ccccc1 (stereo not drawn) [MLS000676112-01]	5.96
CCOc1cc(CNCC(O)c2ccccc2)cc(Cl)c1OC (stereo not drawn) [MLS000676147-01]	3.35
CCOc1c(Cl)cc(CNC(C)C(O)c2ccccc2)cc1OC (stereo not drawn) [MLS000679789-01]	6.68
SC(=NCc1ccccc1)N1CCn2cccc2C1c1cccnc1 (stereo not drawn) [MLS000683224-01]	9.44
O=C(C[n+]1c2n(c3ccccc31)CC(O)CS2)c1ccccc1 (stereo not drawn) [MLS000687555-01]	10.6
COc1ccc(S(=O)(=O)N2CCN(/C(S)=N/C3CCCCC3)CC2)cc1 [MLS000690529-01]	6.68
O=C(NNc1nc(-c2ccc(Br)cc2)cs1)c1ccco1 [MLS000699189-01]	5.31
O=C(Nc1ccc(C(=O)OC[C@@H]2CCCN3CCCC[C@H]23)cc1)c1cccc(Br)c1 [MLS000700112-01]	6.68
Cc1ccc(NC(=O)CC2SC(NC3CCCCC3)=NC2=O)cc1 (stereo not drawn) [MLS000700518-01]	11.9
CCOC(=O)C(C)/C(C)=N/N=C(\N)S (stereo not drawn) [MLS000701955-01]	2.66

Compound	AC50 [µM]
c1ccc(Sc2cccc3ccccc23)c(CNC2=NCCN2)c1 [MLS000702748-01]	13.3
CCOc1ccc(C2C(C(=O)Nc3ccccc3)=C(C)N=c3sc(=Cc4cccc(OCC(=O)O)c4)c(=O)n32)cc1 (stereo not drawn) [MLS000705052-01]	5.31
COc1ccc(C2=[N+](C)CCn3cccc32)c(OC)c1 [MLS000705896-01]	10.6
Cc1ccc2oc(=O)n(CCOc3ccccc3C)c2c1 [MLS000708194-01]	4.73
CCC(C)NC(=O)c1ccccc1NC(=O)C1COc2ccccc2O1 (stereo not drawn) [MLS000708698-01]	10.6
Cc1ccc(CN2C3CCCC2CC(NC(=O)Nc2cccc(F)c2)C3)cc1 (stereo not drawn) [MLS000709814-01]	10.6
Cc1nc2cc(F)ccc2n1C1CCN(C(=O)c2c(F)cccc2F)CC1 [MLS000710077-01]	5.96
O=C(NC1CCCCC1)C(c1cccs1)N(CCCN1CCOCC1)C(=O)c1ccc(-c2ccccc2)[nH]1 (stereo not drawn) [MLS000711767-01]	4.73
CN1CCN(c2nc(Nc3ccc(O)cc3)nc3ccccc23)CC1 [MLS000716977-01]	4.22
CC(C)C(=O)Nc1oc(-c2ccccc2)cc1C#N [MLS000721149-01]	6.68
Cc1ccc(CNCC(O)(c2ccccc2)c2ccc(Cl)cc2)cc1 (stereo not drawn) [MLS000721405-01]	2.99
CCOC(=O)C1=C(C)NC(=O)CC1c1cc(OC)c(OC)cc1Br (stereo not drawn) [MLS000723492-01]	5.31
O=C1NC(=O)/C(=C\c2ccc(N3CCOCC3)o2)N1 [MLS000724369-01]	9.44
CCOC(=O)c1nnn(-c2nonc2N)c1-c1ccc(Cl)cc1 [MLS000727794-01]	5.31
CCOC(=O)c1nnn(-c2nonc2N)c1-c1ccc(Br)cc1 [MLS000727795-01]	2.66
O=c1c([N+](=O)[O-])cccn1Cc1ccc(F)cc1Cl [MLS000728802-01]	4.73
Cn1cc(CN2CCCC(CO)(Cc3ccccc3)C2)cn1 (stereo not drawn) [MLS000732297-01]	5.96
CCCN1CCC(NCc2cn(C)nc2-c2ccc(Oc3ccccc3)cc2)CC1 [MLS000732385-01]	4.73
COc1ccc(-n2cc(CNC3CCN(C)CC3)c(-c3cccc(F)c3)n2)cc1 [MLS000732463-01]	10.6
CN1N=C(C(=O)N2CCc3c([nH]c4ccccc34)C2c2ccccc2Cl)CCC1=O (stereo not drawn) [MLS000733406-01]	5.31
COc1ccc(-n2cc(CNCCCn3ccnc3)c(-c3ccccc3Cl)n2)cc1 [MLS000734282-01]	3.35
